Experiments:
CYP2C9 = biological target: T1, CYP2C9 (Homo sapiens, UniProt P11712); experiment: CYP inhibition assay in pooled human liver microsomes (diclofenac sodium); assay type: in vitro ADME; conditions: human liver microsomes 0.2 mg/mL, substrate diclofenac sodium; read-out: CYP 2C9 (μM) IC50
T1 construct: 150-donor pooled human liver microsomes (purchased from Corning, Cat. No. 452117); tissue Corning 452117; host or cells: 150-donor pooled human liver microsomes
Experimental: (§1) The metabolic reactions of representative substrates of 5 major human CYP subtypes (CYP1A2, CYP2C9, CYP2C19, CYP2D6, CYP3A4/5) were evaluated using 150-donor pooled human liver microsomes (purchased from Corning, Cat. No. 452117). The effects of different concentrations of the test compounds on the metabolic reactions of phenacetin (CYP1A2), diclofenac sodium (CYP2C9), S-mephenytoin (CYP2C19), bufuralol hydrochloride (CYP2D6) and midazolam (CYP3A4/5) were determined by liquid chromatography-tandem mass spectrometry (LC/MS/MS).
(§2) 30 μM phenacetin, 10 μM diclofenac sodium, 35 μM S-mephenytoin, 5 μM bufuralol hydrochloride, 3 μM midazolam, 1 mM NADPH, and test compounds (at concentrations of 0.1 μmol/L, 0.3 μmol/L, 1 μmol/L, 3 μmol/L, 10 μmol/L, and 30 μmol/L, respectively) or positive compound or blank were incubated with 200 μL of a reaction system of pooled human liver microsomes (0.2 mg/mL) (100 mmol/L phosphate buffer, pH 7.4, containing 0.3% by volume of DMSO, 0.6% by volume of acetonitrile, and 0.1% by volume of methanol) at 37° C. for 5 min. Then, 200 μL of acetonitrile containing 3% formic acid and 40 nM internal standard verapamil was added, and the mixture was centrifuged at 4000 rpm for 50 min. The mixture was cooled on ice for 20 min and centrifuged at 4000 rpm for 20 min to precipitate the protein. 200 μL of the supernatant was analyzed by LC/MS/MS.
(§3) The peak area was calculated from the chromatogram. The residual activity rate (%) was calculated by the following formula:
(§4) peak area rate=peak area of metabolite/peak area of internal standard
(§5) residual activity rate (%)=peak area proportion of the test compound group/peak area proportion of the blank group
(§6) The half maximal inhibitory concentrations (IC50) against CYP were calculated by Excel XLfit 5.3.1.3.

CYP3A4/5 = experiment: CYP inhibition assay in pooled human liver microsomes (midazolam); assay type: in vitro ADME; conditions: pH 7.4, probe midazolam (3 μM), human liver microsomes 0.2 mg/mL, substrate midazolam, read-out: CYP 3A4/5 (μM) IC50
Experimental: as §1, §2, §3, §4, §5, §6

[1] = In vitro metabolic stability in human hepatocytes; assay type: in vitro ADME; conditions: human hepatocytes 1×10^6 cells/mL, 37° C., up to 120 min; read-out: Intrinsic clearance (uL/min/10^6 cells)
Experimental: The concentrations of the test compounds in the reaction system were determined by LC/MS/MS, so that the intrinsic clearance of the test compounds was calculated, and the in vitro metabolic stability in human hepatocytes was evaluated.
247.5 μL of a mixed solution of human hepatocytes at 1×10^6 cells/mL (purchased from BioreclamationIVT, Cat. No. S01205) and 2.5 μL of 100 μM test compound or positive control was added to a plate to initiate the reaction. The plate was incubated at 37° C. and 600 rpm. 20 μL of incubation system was transferred to a stop plate at 0.5 min, 5 min, 15 min, 30 min, 45 min, 60 min, 80 min, 100 min and 120 min. Then, the mixture was vortexed for 2 min to be mixed well. The stop plate was centrifuged at 4000 rpm for 20 min. 40 μL of supernatant of each compound was transferred to a 96-well sample template, after which 160 μL of pure water was added to dilute the samples.
The resulting samples were quantified from ion chromatogram. The residual rate was calculated from the peak area of the test compound or the positive control. Slope k was determined by linear regression of the […] of residual rates versus incubation time using Microsoft Excel.
Intrinsic clearance (in vitro CLint, μL/min/10^6 cells) was calculated from the slope value according to the following equation:
V=incubation volume (0.25 mL);
N=number of cells per well (0.25×10^6 cells)

hP2X3 = biological target: T2, hP2X3 (Homo sapiens, UniProt P56373); experiment: FLIPR calcium flux assay, antagonistic activity against hP2X3 receptor; assay type: cell-based; conditions: 1321N1/hP2X3 cells, agonist α,β-meATP 500 nM
T2 construct: host or cells: 1321N1 cells
T2 sequence (P56373 1-397): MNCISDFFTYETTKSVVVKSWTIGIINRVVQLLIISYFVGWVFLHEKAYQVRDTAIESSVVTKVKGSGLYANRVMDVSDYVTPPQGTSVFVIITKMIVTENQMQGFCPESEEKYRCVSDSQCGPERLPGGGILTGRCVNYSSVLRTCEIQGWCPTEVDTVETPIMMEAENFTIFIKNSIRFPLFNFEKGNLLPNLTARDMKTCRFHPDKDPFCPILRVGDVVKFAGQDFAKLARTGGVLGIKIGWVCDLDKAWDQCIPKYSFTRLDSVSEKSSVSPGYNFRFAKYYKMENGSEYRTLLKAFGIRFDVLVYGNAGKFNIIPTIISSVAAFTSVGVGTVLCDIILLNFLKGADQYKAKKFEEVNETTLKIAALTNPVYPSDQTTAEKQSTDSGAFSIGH
Experimental: The compounds were screened for antagonistic activity against hP2X3 and hP2X2/3 receptors (changes in calcium flux signals represent the effect of the compounds on ion channels) by an FLIPR assay.
1321N1 cells (adherent cells) stably transfected with hP2X3 and hP2X2/3 receptors were digested, centrifuged, resuspended in a plating medium (DMEM+10% DFBS) and counted, adjusted to 2×10^5 cells/mL. The cells were seeded in a 384-well assay plate at 50 μL/well, and incubated in an incubator at 37° C. with 5% CO2 for 16-24 h. Test compounds (20 mM DMSO stock solution) that were 180 times the desired concentration were prepared with DMSO, and added to a 384-well compound plate at 500 nL/well. Then, each well was supplemented with 30 μL of FLIPR buffer (lx HBSS containing 1.26 mM Ca^2++2 mM CaCl2)+20 mM HEPES), and the mixture was shaken for 20-40 min to be mixed well. The agonist α,β-meATP (final concentration of 500 nM for hP2X3 cells and final concentration of 1000 nM for hP2X2/3 cells) that was 3 times the desired concentration was prepared with an FLIPR buffer, and added to another 384-well compound plate at 35 μL/well. The cell plate in which cells had been plated and cultured for 16-24 h was taken out, and the cell supernatant was removed by pipetting. 30 μL of dye (FLIPR® calcium 4 assay kit, diluted with an FLIPR buffer) was added to each well, and the plate was incubated for 1 h. 15 μL of the compound was added to each well containing cells (dosing using an FLIPR instrument), and after 15 min, 22.5 μL of agonist was added to each well and the fluorescent signal was detected (excitation wavelength: 470-495 nm, emission wavelength: 515-575 nm). With the difference between the peak and the trough of the signal taken as the basic data, the data of the highest concentration of the positive drug taken as the 100% inhibition rate, and the data of DMSO taken as the 0% inhibition rate, the inhibition effect curves of the compounds were fitted on the software Graphpad Prism 6 and IC50 values were calculated.

T1 sequence (P11712 whole entry): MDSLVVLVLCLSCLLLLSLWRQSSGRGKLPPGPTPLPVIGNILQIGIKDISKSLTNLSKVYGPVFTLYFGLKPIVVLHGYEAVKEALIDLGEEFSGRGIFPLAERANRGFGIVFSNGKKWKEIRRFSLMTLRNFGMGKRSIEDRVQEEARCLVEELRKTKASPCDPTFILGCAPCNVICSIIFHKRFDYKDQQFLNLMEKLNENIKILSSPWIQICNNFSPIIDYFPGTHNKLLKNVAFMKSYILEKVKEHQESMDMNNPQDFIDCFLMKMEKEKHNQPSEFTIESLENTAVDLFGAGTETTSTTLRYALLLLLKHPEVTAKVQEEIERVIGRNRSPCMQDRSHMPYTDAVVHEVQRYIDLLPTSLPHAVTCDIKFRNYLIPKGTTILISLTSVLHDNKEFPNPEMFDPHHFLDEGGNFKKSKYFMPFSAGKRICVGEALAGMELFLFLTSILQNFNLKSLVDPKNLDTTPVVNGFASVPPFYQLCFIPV

SMILES | IC50 (CYP2C9) | IC50 at 5 min (CYP3A4/5) | hepatocyte CLint at 1 μM [1] | IC50 (hP2X3)
COC(=O)N1CCOC(Cn2c(-c3c(F)cc(N4CCCC4=O)cc3F)nc3cc(C)ccc32)C1 (stereo not shown) [Compound 2, Methyl 2-((2-(2,6-difluoro-4-(2-carbonylpyrrolidin-1-yl)phenyl)-5-methyl-1H-benzo[d]imidazol-1-yl)methyl)morpholine-4-carboxylate] | 3.06 µM | > 30 µM | 2.98 µL/min/1e6 cells | 0.105 µM
[2H]C([2H])([2H])c1ccc2c(c1)nc(-c1c(F)cc(N3CCCC3=O)cc1F)n2C[C@H]1CN(C(C)=O)CCO1 [Compound 14, (S)-1-(4-(1-((4-acetylmorpholin-2-yl)methyl)-5-(methyl-d3)-1H-benzo[d]imidazol-2-yl)-3,5-difluorophenyl)pyrrolidin-2-one] | 21.9 µM | > 30 µM | < 1 µL/min/1e6 cells | 0.033 µM
CC(=O)N1CCO[C@@H](Cn2c(-c3ccc(N4CCCC4=O)cc3Cl)nc3cc(C)ccc32)C1 [Compound 3, (S)-1-(4-(1-((4-acetylmorpholin-2-yl)methyl)-5-methyl-1H-benzo[d]imidazol-2-yl)-3-chlorophenyl)pyrrolidin-2-one] | > 30 µM | > 30 µM | 4.08 µL/min/1e6 cells | 0.0412 µM
CC(=O)N1CCO[C@@H](Cn2c(-c3c(F)cc(N4CCCC4=O)cc3Cl)nc3cc(C)ccc32)C1 [Compound 4, (S)-1-(4-(1-((4-acetylmorpholin-2-yl)methyl)-5-methyl-1H-benzo[d]imidazol-2-yl)-3-chloro-5-fluorophenyl)pyrrolidin-2-one] | > 30 µM | > 30 µM | < 1 µL/min/1e6 cells | 0.0316 µM
CC(=O)N1CCOC(Cn2c(-c3c(F)cc(N4CCCC4=O)cc3F)nc3cc(C)ccc32)C1 (stereo in doubt) [Compound 1] | 21.7 µM | > 30 µM | < 1 µL/min/1e6 cells | 0.0368 µM
COC(=O)N1CCO[C@@H](Cc2c(-c3c(F)cc(N4CCCC4=O)cc3F)nc3cc(C)ccn23)C1 [Compound 9, Methyl (S)-2-((2-(2,6-difluoro-4-(2-carbonylpyrrolidin-1-yl)phenyl)-7-methylimidazo[1,2-a]pyridin-3-yl)methyl)morpholine-4-carboxylate] | 1.48 µM | 12.9 µM | 3.86 µL/min/1e6 cells | 0.0758 µM
CC(=O)N1CCO[C@@H](Cn2c(-c3c(F)cc(N4CCCC4=O)cc3F)nc3cc(Cl)ccc32)C1 [Compound 10, (S)-1-(4-(1-((4-acetylmorpholin-2-yl)methyl)-5-chloro-1H-benzo[d]imidazol-2-yl)-3,5-difluorophenyl)pyrrolidin-2-one] | > 30 µM | > 30 µM | < 1 µL/min/1e6 cells | 0.0541 µM

Reference: patent US20230250095A1, “BENZIMIDAZOLE DERIVATIVES, PREPARATION METHOD THEREFOR AND MEDICAL USE THEREOF” (TUOJIE BIOTECH(SHANGHAI) CO., LTD., priority 2020, published 2023)
